One compound from patent US20200237700A1, “METHODS OF REDUCING OR PREVENTING OXIDATION OF SMALL DENSE LDL OR MEMBRANE POLYUNSATURATED FATTY ACIDS” (Amarin Pharmaceuticals Ireland Limited, priority 2015, published 2020) can be followed below.

The assay is described as follows: LOOH formation in glucose-treated model membranes, EPA versus EA and ETE (Example 5). The note with it: 72 and 96 hr. It counts as biochemical. As to the method: An experiment was conducted to compare the ability of EPA to prevent lipid hydroperoxide formation in model membranes treated with glucose to two other 20-carbon fatty acids: eicosanoic acid (“EA,” also referred to as arachidic acid, C20:0) and eicosatrienoic acid (“ETE,” C20:3, n−3). All MLV samples were subjected to time-dependent autoxidation by incubating at 37° C. in an uncovered, shaking water bath. This method allows lipid peroxidation to occur gradually without requiring the use of exogenous initiators. Small aliquots (5-100 μL) of each sample were removed, immediately following MLV preparation (0 hr) and after exposing samples to oxidative conditions for 72 or 96 hr, and combined with 1.0 mL of activated CHOD-iodide color reagent. Aliquot volume was reduced with each successive time point to ensure that spectrophotometric readings were within the optimal adsorption range. Test samples were covered and incubated in darkness at room temperature for at least 4 hr. Sample absorbances were then measured against a CHOD blank at 365 nm using a Beckman DU-640 spectrophotometer. The CHOD colorimetric assay is based on the oxidation of iodide (I^−) by lipid hydroperoxide (LOOH) to form triiodide (I3^−), the quantity of which is directly proportional to the amount of LOOH present in the lipid sample. The molar absorptivity (E) of I3^− is 2.46×10^4 M^−1 cm^−1 at 365 nm.

Turning to `CC/C=C\C/C=C\C/C=C\C/C=C\C/C=C\CCCC(=O)O` [EPA, cis-5,8,11,14,17-eicosapentaenoic acid], the “LOOH formation compared to vehicle only, glucose only, glucose and EA, glucose and ETE” value is reported as “significantly less LOOH formation”.
